Key:
Assay type in all cases: cell-based
[1] = tested on: human prostate cancer cells PC3; assay: MTT assay, proliferation of human prostate cancer cells PC3; conditions: for IC50: Homo sapiens, PC3, MTT, 48 h, 0-32 μM, read-out: IC50 on the proliferation of human prostate cancer cells PC3; for inhibitory effects on human prostate cancer cells PC3 (in words): PC3, summary of Table 4; for effect compared with control gossypol I-A9, PC3: PC3, versus gossypol I-A9
[2] = tested on: human gastric cancer cells MKN45; assay: MTT assay, proliferation of human gastric cancer cells MKN45; conditions: for IC50: Homo sapiens, MKN-45, MKN45, MTT, 48 h, 0-60 μM, read-out: IC50 on the proliferation of human gastric cancer cells MKN45; for inhibitory effects on human gastric cancer cells MKN45 (in words): MKN45, summary of Table 1; for effect compared with control gossypol I-A9, MKN45: MKN45, versus gossypol I-A9
Description: (§1) The original culture medium for human gastric cancer cells MKN45 was removed, and human gastric cancer cells MKN45 were rinsed with 2 mL of phosphate buffer saline (PBS), digested with 0.5 mL of pancreatic enzyme for 3 min. 2 mL of culture medium was added to the cells and the mixture was transferred to a centrifuge tube. The mixture was centrifuged (200 g) for 5 min. The supernatant was removed. 2 mL of culture medium was sprayed five times to the remaining solution. 0.5 mL of cell suspension was transferred to an Eppendorf (EP) tube and the cells were counted. The cells were cultured on a 96-well plate, each well having 2000 cells, 3 wells for each compound. The numbers of the required cells and wells and the amount of culture medium were calculated. The cells were diluted by the culture medium. 100 μL culture medium was added to each well and were evenly dispersed, each well containing 2000 cells. The cells were transferred to the wells using a pipette, and cultured in an incubator.
(§2) (2) Adding Compounds to Culture Medium
(§3) The original culture medium was discarded, and the mother liquor of each compound was diluted to final concentrations of 0, 5, 15, 30, 45 and 60 μM, respectively. Each diluent was uniformized. To each head of a multichannel pipette, 100 μL of the diluent was introduced. Three heads were employed. The diluents were added to 3 marked wells (the cells were undamaged) of a tilted 96-well plate, respectively. Different concentrations of diluents were added to three different marked wells and evenly mixed by alternately sucking and blowing with the multichannel pipette 3 times. The 96-well plate was shaken slightly twice, and cultured in a CO2 incubator.
(§4) The cells were cultured in different compounds for 48 h and were then detected. Specifically, a clean bench was turned on for 15 min, and phosphate buffer saline (PBS) was pre-heated in a warm water bath for 15 min. MTT was taken out of a refrigerator at −20 degrees, protected from light and thawed (MTT stock solution was 5 mg/mL). MTT and a culture medium were mixed evenly in a V-shaped groove to yield a mixture comprising 500 μg/mL MTT and a culture medium (a volume ratio thereof being 1:10). 100 μL of the prepared MTT mixture was added to each well of the 96-well plate using the multichannel pipette, and then incubated at 37° C. for an appropriate time (1 h), thereby reducing the MTT to formazan (purple crystals formed in the cells under a microscope, which were different in medicated cells and unmedicated cells). The upper liquid was removed with a white pipette tip attached to a vacuum pump. For each concentration of the compounds, 3 pipette tips were employed. After the incubation, the MTT mixture was discarded, and then 100 μL of DMSO was added to each well using the multichannel pipette. The 96-well plate was shaken in a shaker for 10 min (until the purple crystals were dissolved in the cells under the microscope).
The absorbance value of the cells was measured at a wavelength of 550 nm with a microplate reader. The survival rate of the cells treated with different concentrations of compounds was calculated to make a scatter plot. The IC50 results of each compound on the proliferation of human gastric cancer cells MKN45 were shown in Table 1, where Gossypol I-A9 is a control sample.

[3] = tested on: human lung cancer cells A549; assay: MTT assay, proliferation of human lung cancer cells A549; conditions: for inhibitory effects on human lung cancer cells A549 (in words): A549, summary of Table 3; for effect compared with control gossypol I-A9, A549: A549, versus gossypol I-A9; for IC50: Homo sapiens, A549, MTT, 48 h, 0-80 μM, read-out: IC50 on the proliferation of human lung cancer cells A5499
Description: as §1, with “lung” for “gastric”, “A549” for “MKN45”
as §2
as §3, with “10, 20,” for “15,”, “60” for “45”, “80” for “60”
as §4
The absorbance value of the resulting solution was detected at a wavelength of 550 nm with a microplate reader. The survival rate of cells treated with different concentrations of drugs was calculated in accordance with the requirements to make a scatter plot. The IC50 results of each compound on the proliferation of human lung cancer cells A549 were shown in Table 3, where Gossypol I-A9 is a control sample.

Structure (SMILES) | IC50 [1] [µM] | inhibitory effects on human prostate cancer cells PC3 (in words) [1] | effect compared with control gossypol I-A9, PC3 [1] | also measured
Cc1c(O)c(O)c(C=O)c2c1C(c1ccc(C(F)(F)F)cc1)CC2 (centres unmarked) [Compound I-5] | 7.09 | significant inhibitory effects | superior than the gossypol I-A9 | –
Cc1cc(COCc2ccccc2)c(C=O)c(O)c1O [Compound I-21, 6-((benzyloxy)methyl)-2,3-dihydroxy-4-methylbenzaldehyde] | 8.09 | significant inhibitory effects | superior than the gossypol I-A9 | –
Cc1c(O)c(O)c(C=O)c(CC=C(c2ccccc2)c2ccccc2)c1-c1ccccc1 [Compound I-24] | 7.24 | significant inhibitory effects | superior than the gossypol I-A9 | –
Cc1c(O)c(O)c(C=O)c(COCc2ccccc2)c1-c1ccccc1 [Compound I-25] | 8.32 | significant inhibitory effects | superior than the gossypol I-A9 | –
Cc1c(O)c(O)c(C=O)c(COCc2ccccc2)c1-c1ccc(F)cc1 [Compound I-26] | 10.1 | significant inhibitory effects | – | IC50 [2]: 16.8 µM; inhibitory effects on human gastric cancer cells MKN45 (in words) [2]: significant inhibitory effects
Cc1c(O)c(O)c(C=O)c(COCc2ccccc2)c1-c1ccccc1C#N [Compound I-28] | – | – | – | inhibitory effects on human lung cancer cells A549 (in words) [3]: inhibitory effects; effect compared with control gossypol I-A9, A549 [3]: slightly inferior to that of the Gossypol I-A9; IC50 [3]: 67.6 µM
CCc1cc(COCc2ccccc2)c(C=O)c(O)c1O [Compound I-31] | 7.25 | significant inhibitory effects | superior than the gossypol I-A9 | –
Cc1c(C)c(COCc2ccccc2)c(C=O)c(O)c1O [Compound I-39] | – | – | – | IC50 [2]: 6.62 µM; inhibitory effects on human gastric cancer cells MKN45 (in words) [2]: significant inhibitory effects; effect compared with control gossypol I-A9, MKN45 [2]: better than the control gossypol I-A9
COc1cc(OC)c(Cc2c(C=O)c(O)c(O)c(C)c2-c2ccc(Br)cc2)c(OC)c1 [Compound I-41] | 1.76 | significant inhibitory effects | superior than the gossypol I-A9 | –
COc1cc(OC)c(Cc2c(C=O)c(O)c(O)c(C)c2-c2ccc([N+](=O)[O-])cc2)c(OC)c1 [Compound I-42, 4,5-dihydroxy-6-methyl-4′-nitro-2-(2,4,6-trimethoxybenzyl)-(1,1′-biphenyl)-3-carbaldehyde] | 2.8 | significant inhibitory effects | superior than the gossypol I-A9 | –
CCc1c(O)c(O)c(C=O)c(Cc2c(OC)cc(OC)cc2OC)c1-c1ccccc1 [Compound I-44] | 2.91 | significant inhibitory effects | superior than the gossypol I-A9 | –
Cc1c(O)c(O)c(C=O)c(COCc2ccccc2)c1-c1ccc(C(C)(C)C)cc1 [Compound I-46] | 6.41 | significant inhibitory effects | superior than the gossypol I-A9 | –
Cc1c(O)c(O)c(C=O)c(COCc2ccccc2)c1-c1cccc2ccccc12 [Compound I-47] | 8.12 | significant inhibitory effects | superior than the gossypol I-A9 | –
Cc1c(O)c(O)c(C=O)c(COCc2ccccc2)c1-c1ccsc1 [Compound I-48] | 22.4 | significant inhibitory effects | – | –
CC(C)c1c(O)c(O)c(C=O)c2c1C(c1ccccc1)CC2 (centres unmarked) [Compound I-50, 5,6-dihydroxy-7-isopropyl-1-phenyl-2,3-dihydro-1H-indene-4-carbaldehyde] | 2.88 | significant inhibitory effects | superior than the gossypol I-A9 | IC50 [2]: 12.3 µM; inhibitory effects on human gastric cancer cells MKN45 (in words) [2]: significant inhibitory effects; effect compared with control gossypol I-A9, MKN45 [2]: better than the control gossypol I-A9
COc1cc(OC)c(Cc2cc(C(C)C)c(O)c(O)c2C=O)c(OC)c1 [Compound I-51] | 5.27 | significant inhibitory effects | superior than the gossypol I-A9 | –
CC(C)c1cc(COCc2ccccc2)c(C=O)c(O)c1O [Compound I-53] | 6.65 | significant inhibitory effects | superior than the gossypol I-A9 | –
CC(C)c1c(O)c(O)c(C=O)c(COCc2ccccc2)c1-c1ccccc1 [Compound I-55] | 2.05 | significant inhibitory effects | superior than the gossypol I-A9 | –
Cc1cc(COCc2ccccc2)c(CO)c(O)c1O [Compound I-96] | – | – | – | inhibitory effects on human gastric cancer cells MKN45 (in words) [2]: significant inhibitory effects
COC(=O)c1c(COCc2ccc(OC)cc2)cc(C)c(OC)c1OC [Compound I-100] | – | significant inhibitory effects | – | –
Cc1cc(CSCc2ccccc2)c(C=O)c(O)c1O [I-A4] | – | – | – | inhibitory effects on human lung cancer cells A549 (in words) [3]: inhibitory effects; effect compared with control gossypol I-A9, A549 [3]: slightly inferior to that of the Gossypol I-A9; IC50 [3]: 58.9 µM
COc1cc(OC)c(Cc2c(C=O)c(O)c(O)c(C)c2-c2ccco2)c(OC)c1 [I-A6, 3-(furan-2-yl)-5,6-dihydroxy-4-methyl-2-(2,4,6-trimethoxybenzyl) benzaldehyde] | 3.45 | significant inhibitory effects | superior than the gossypol I-A9 | –
Cc1c(O)c(O)c(C=O)c(COCc2ccccc2)c1Br [I-A8, 2-((benzyloxy)methyl)-3-bromo-5,6-dihydroxy-4-methylbenzaldehyde] | 2.37 | significant inhibitory effects | superior than the gossypol I-A9 | –

Reference: patent US11376228B2 (Genifarm Laboratories Inc, priority 2018, dated 2022)
